Experiment [1] deals with white blood cells and neutrophils. Nature of the experiment: PLAG in combination with G-CSF in cyclophosphamide-treated mouse model. To be noted: addition of PLAG to G-CSF; levels vs untreated mice. The class given is in vivo, mice. The source says: Mice receive cyclophosphamide (100 mpk, i.p.) for a period of ten days, with or without G-CSF (0.25 mpk, i.p.) or G-CSF (0.25 mpk, i.p.) plus PLAG (25 mpk, p.o.): […]

The subject of a further experiment is platelets. Nature of the experiment: Lipopolysaccharide-induced platelet reduction in mice. It is filed as in vivo. Conditions: LPS 1 mg/kg, PLAG 1 mg/kg, 15 hours after PLAG treatment. The procedure:
Mice are injected with 100 mg/kg phenylhydrazine (PHZ), i.p., to induce anemia and reduction of platelets. 5 mg/kg PLAG is administered to the mice orally and blood samples are taken at 3 and 13 days after. In addition, for comparison, normal mice which are not treated with phenylhydrazine are prepared as a normal group, and mice treated with PHZ and olive oil instead of PLAG are prepared as a control group. The blood samples taken from the mice are treated with 0.5 ml EDTA (Minicollect tube, Greiner bio-one, Austria) and concentration of platelet is measured using automated blood sample analyzer BC-6800 (Mindray, Shenzhen, China) by number of platelet per […] (k: 1,000).
The experiment is repeated using Tamoxifen (Tam), an anticancer agent, injected at the amount of 100 mg/kg, or lipopolysaccharide (LPS), an inflammation inducer, at the amount of 1 mg/kg to induce platelet reduction. Platelet concentration is measured 15 hours after PLAG treatment. For comparison, olive oil and PBS are used instead of PLAG as controls, respectively for the Tamoxifen and lipopolysaccharide experiment.

Experiment [2] relates to C3. Nature of the experiment: C3 in culture supernatant of HepG2 cells, ELISA. The class given is cell-based, human. Conditions: PLAG 1 to 100 μg/ml or S6I 10 and 100 μg/ml, IL-4 and TNF-α 1 hr, 18 hr at 37° C. As to the method:
The incubated HepG2 cell lines are treated with PLAG (1˜100 μg/ml), followed by IL-4 and TNF-α, reacted for 1 hour, incubated for 18 hours at 37° C. and the supernatant isolated. Quantitation of the amount of C3 in the cellular culture medium (supernatant) from HepG2 cells is performed by ELISA using a commercially available monoclonal antibody (mAb, R&D Systems) and the manufacture's protocol; the results are presented in FIG. 3. C3 is expressed spontaneously under in vitro culture condition using 10% FCS added to HepG2 cells incubated for 12 hr. The cells are treated with different doses of PLAG from 1 to 100 μg/ml (Panel A, Panel B) or 10 and 100 μg/ml of S6I (Panel C), reacted with IL-4 and TNF-α for 1 hr and then incubated for 18 hr at 37° C. Cellular viability is confirmed using the WST-1 assay (Panel A).
Background: In an ELISA, binding on a coated surface is turned into a signal by an enzyme label.

In another experiment the target is T1, STAT1 (Homo sapiens, UniProt P42224).
T1 sequence (P42224 1-750): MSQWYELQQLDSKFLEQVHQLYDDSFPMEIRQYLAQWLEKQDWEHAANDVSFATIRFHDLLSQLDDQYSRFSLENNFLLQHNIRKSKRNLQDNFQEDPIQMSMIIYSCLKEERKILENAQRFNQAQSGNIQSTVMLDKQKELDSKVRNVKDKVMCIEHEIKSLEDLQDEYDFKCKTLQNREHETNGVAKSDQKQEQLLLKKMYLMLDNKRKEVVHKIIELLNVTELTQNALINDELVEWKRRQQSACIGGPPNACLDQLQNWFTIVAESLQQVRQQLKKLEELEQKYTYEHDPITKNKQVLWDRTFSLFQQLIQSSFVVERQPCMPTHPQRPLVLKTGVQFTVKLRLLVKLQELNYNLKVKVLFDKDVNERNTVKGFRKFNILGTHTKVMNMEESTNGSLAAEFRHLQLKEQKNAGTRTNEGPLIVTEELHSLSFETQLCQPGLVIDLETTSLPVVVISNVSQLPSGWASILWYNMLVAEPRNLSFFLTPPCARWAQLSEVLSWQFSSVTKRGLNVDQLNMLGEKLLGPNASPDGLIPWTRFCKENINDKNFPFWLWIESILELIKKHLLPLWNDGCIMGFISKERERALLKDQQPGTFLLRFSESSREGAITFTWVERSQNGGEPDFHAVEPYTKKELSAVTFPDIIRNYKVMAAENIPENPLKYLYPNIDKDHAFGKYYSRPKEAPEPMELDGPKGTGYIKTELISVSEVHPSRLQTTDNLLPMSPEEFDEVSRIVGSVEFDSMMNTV
Nature of the experiment: Dephosphorylation of STAT1 in U937 cell lysate, western blot. The class given is cell-based. Also noted: endogenous in cells; host or cells: U937. Conditions: U937 cells; PLAG 0.01 to 10 μg/ml; 15 min after 10 ng IFN-γ. As to the method: Dephosphorylation of STAT6 is examined using anti-phosphorylated STAT6 in U937, A549, and Jurkat cell lysates treated with PLAG concentration from 0.01 to 10 μg/ml. Phosphorylation of STAT6 is induced by treatment with 10 ng/ml of IL-4. Dephosphorylation of STAT1 is examined in the U937 cell lysate treated with PLAG (0.01 to 10 μg/ml). Phosphorylation of STAT1 is induced by 10 ng of IFN-γ treatment. Dephosphorylation of STAT1 and STAT6 is examined at 15 min after stimulation with IFN-γ and IL-4 respectively, in the PLAG pretreated cells. […] The transcriptional activity of STAT6 is decreased by the dephosphorylation of STAT6. […] No effect of PLAG on STAT1 phosphorylation is observed.

Experiment [3] relates to C3. Nature of the experiment: C3 expression in HepG2 cell line, RT-PCR of mRNA. The class given is cell-based, human. To be noted: HepG2 cells, 2 hours. As to the method: A liver cell line, HepG2 (American Type Culture Collection, ATCC, Rockville, Md.), is incubated and maintained at 37° C., 5% CO2 humid atmosphere in DMEM medium. When HepG2 cells, which are known to produce complement in culture, are treated with PLAG, the activity of complement is reduced effectively, as confirmed by RT-PCR of mRNA. In the RT-PCR, 5×10^5 number of HepG2 cells/ml are distributed into 12 well plates and induced C3 for 12 hours with 10% FCS. Then PLAG is added and further cultured for 2 hours. Cells are harvested and mRNA is isolated and RT-PCR is carried out with specific primer of C3; GAPDH is used as an internal control.

Molecules are shown by their SMILES.

As for `CCCCC/C=C\C/C=C\CCCCCCCC(=O)OC(COC(C)=O)COC(=O)CCCCCCCCCCCCCCC` (racemic) [PLAG, 1-palmitoyl-2-linoleoyl-3-acetylglycerol], the “protection from cyclophosphamide-induced neutropenia” value in experiment [1] was “substantially complete protection”. The “Platelet Conc.” value with platelets is 450.00 k/ul. Moreover, the “expression of C3 (amount in supernatant, ELISA)” value in the experiment with C3 [2] is “decreased dose-dependently”. Also, at STAT1, the STAT1 phosphorylation entry is given as “No effect”. Further, the entries for the “inhibition of C3 expression (RT-PCR)” value in the experiment with C3 [3] (PLAG 1 microgram/ml) and in the experiment with C3 [3] (PLAG 10 microgram/ml) were “somewhat” and “entirely”, respectively.

For the origin of these results see US11491132B2, “Methods for treating thrombocytopenia” (Enzychem Lifesciences Corporation, priority 2014, dated 2022).
